Assays:
human MetAP-2 enzyme = human MetAP-2 enzyme (Homo sapiens, UniProt P50579); assay: MetAP-2 inhibition (release of AMC from Met-Gly-Pro-AMC); type: biochemical
Description: The test samples were evaluated for their ability to inhibit human MetAP-2 enzyme. The compounds were added at varying concentrations to human MetAP-2 enzyme (6 nM) in a buffered medium containing 20 mM Hepes, pH 7.4, 100 mM KCl, 0.1 mM Co(II), 10% glycerol, 5 mg/ml of L-Amino acid oxidase, 10 mg/ml of peroxidase, 10 mg/ml of o-dianisidine, and 2 mM of Met-Ser-Ala at 37° C. After 10 minutes incubation the reaction is started by adding the substrate Met-Gly-Pro-AMC to 2 mM and the release of AMC is measured with a Decan Plate reader (Excitation at 345 nm, emission at 445 nm). The kinetic data is recorded at 30 sec intervals for 30 min. Table 1 lists some of the conjugates and compounds tested along with their approximate IC50 values for inhibiting Met-AP2.

[1] = test system: human umbilical vein endothelial cells (HUVECs); assay: Inhibitory effect on HUVEC cell growth (MTS/PES colorimetry); type: cell-based; details: Homo sapiens, 120 h, cultured 5 days, MTS/PES absorbance 490 nm
Description: Using human umbilical vein endothelial cells (HUVECs), the effect of the fumagillin analog conjugates and the fumagillin analogs on cell growth was evaluated.
The HUVECs were added to M199 medium supplemented with 20% FBS, after which the cells were incubated at 37° C. under 5% CO2. 96-well plates were seeded at 5,000 cells/well in a total volume of 100 μL. The cells were left overnight to attach to the plate. Cells were subcultured a maximum of 15 times before being discarded.
To evaluate the inhibitory activity of the fumagillin conjugate or the fumagillin analog alone on the growth of HUVEC cells, the conjugate or fumagillin analog was dissolved in the required amount of 0.9% saline, vortexed briefly to wet and disperse the solids, followed by vortexing for a total of 30 min. […] The cells were treated with the conjugate solution or fumagillin analog solution at various concentrations ranging from 30 nM to 0.01 nM, and cultured for 5 days at 37° C.
Colorimetry was performed to determine the extent of cell growth by adding 20 μL of MTS/PES reagent to each well, incubation for 4 h at 37° C. followed by measuring the absorbance at 490 nm.

B16F10 tumor cells [2] = assay: Tumor growth delay in B16F10 mouse melanoma; type: in vivo; details: IV, q3d × 4, BDF1 mice
Description: BDF1 female mice (N=6) with 1×10^6 B16F10 tumor cells positioned subcutaneous in the flank were treated with various fumagillin conjugates of the invention. Tumor growth was monitored in parallel with positive and negative controls of cyclophosphamide and saline respectively. Treatment began when tumors reached an average size of 80-120 mg and tumor volumes were measured two times per week until animals reached an endpoint tumor volume of 2 grams or 45 days, whichever came first. Conjugates were administered as solutions in saline intravenously at dose levels of 30-100 mg/kg (expressed as fumagillin analog equivalents) on a schedule of q3dx4. Treatment outcomes were assessed in terms of percent tumor growth delay (% TGD), (see FIG. 1) defined as the percent increase in median time to endpoint for mice treated with an agent compared to those treated with saline.

B16F10 tumor cells [3] = assay: Tumor growth delay in B16F10 mouse melanoma; type: in vivo; details: 80 mg/kg fumagillin analog equiv., IV, qod × 4, BDF1 mice
[4] = Open field activity levels in mice; type: in vivo, mouse; details: C57B1/6 mice, 50-100 mg/kg for four weeks; conjugates IV, TNP-470 subcutaneously; versus saline
Description: C57B1/6 female mice (N=8) were housed until they reached 11 weeks of age. Animals were then regularly administered with fumagillin conjugates or TNP-470 and their activity levels monitored in an open field arena. Activity levels were assessed with saline as a control. Conjugates were administered as solutions in saline intravenously at dose levels of 50-100 mg/kg (expressed as fumagillin-analog equivalents) and TNP-470 was administered subcutaneously at dose levels of 50-100 mg/kg. Dosing was performed for four weeks on schedules ranging from q2d to once weekly, and activity levels were observed four times throughout the study: (1) prior to compound administration, (2) after one week of dosing, (3) after two weeks of dosing, and (4) following the final week of dosing. Animals were placed in the open field arena for 10 minutes per trial and their activity monitored in terms of travel distance, peripheral squares crossed, center squares crossed, and rearing events.

[5] = 80 mg/kg fumagillin analog equiv.

human MetAP-2 enzyme, sequence (P50579 whole entry): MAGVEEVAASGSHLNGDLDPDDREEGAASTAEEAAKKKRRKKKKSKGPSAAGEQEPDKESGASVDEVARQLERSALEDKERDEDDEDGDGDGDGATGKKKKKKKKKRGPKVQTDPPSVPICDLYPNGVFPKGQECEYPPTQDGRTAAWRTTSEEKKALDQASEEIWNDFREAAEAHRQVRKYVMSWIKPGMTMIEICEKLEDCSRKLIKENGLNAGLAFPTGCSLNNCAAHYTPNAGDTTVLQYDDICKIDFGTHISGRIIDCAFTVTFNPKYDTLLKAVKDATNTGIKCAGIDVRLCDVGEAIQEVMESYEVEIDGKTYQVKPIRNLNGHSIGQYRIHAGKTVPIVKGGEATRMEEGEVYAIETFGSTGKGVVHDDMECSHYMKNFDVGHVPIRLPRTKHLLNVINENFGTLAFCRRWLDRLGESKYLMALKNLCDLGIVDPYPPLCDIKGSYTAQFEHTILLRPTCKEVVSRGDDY

| SMILES | IC50 [1] [nM] | % TGD (B16F10 tumor cells [2]; [5]) | also measured |
| --- | --- | --- | --- |
| CO[C@H]1[C@H](C2(C)O[C@@H]2CC=C(C)C)[C@]2(CC[C@H]1OC(=O)NCc1ccc(N)cc1)CO2 (some centres unmarked) [Compound 8] | < 25 | – | IC50 (human MetAP-2 enzyme): < 10 nM |
| CO[C@H]1[C@H](C2(C)O[C@@H]2CC=C(C)C)[C@]2(CC[C@H]1NC(=O)c1ccc([N+](=O)[O-])cc1)CO2 (some centres unmarked) [Compound 19] | < 25 | – | % TGD (B16F10 tumor cells [2]; 40 mg/kg fumagillin analog equiv.): 20-50% |
| CCOC(=O)CCN1CCN(C(=O)O[C@@H]2CC[C@]3(CO3)[C@@H](C3(C)O[C@@H]3CC=C(C)C)[C@@H]2OC)CC1 (some centres unmarked) [Compound 22] | < 25 | – | % TGD (B16F10 tumor cells [2]; 30 mg/kg fumagillin analog equiv.): 5-20% |
| COc1ccc2c(ccn2C(=O)O[C@@H]2CC[C@]3(CO3)[C@@H](C3(C)O[C@@H]3CC=C(C)C)[C@@H]2OC)c1 (some centres unmarked) [Compound 23] | < 25 | 5-20% | – |
| CO[C@@H]1[C@H](O)CC[C@]2(CO2)[C@H]1C1(C)O[C@@H]1CC=C(C)C (some centres unmarked) [Compound 25] | > 30 | 20-50% | – |
| CO[C@H]1[C@H](C2(C)O[C@@H]2CC=C(C)C)[C@]2(CC[C@H]1OC(=O)N1CC3CC1CN3)CO2 (some centres unmarked) [Compound 26] | < 25 | – | % TGD (B16F10 tumor cells [2]; 60 mg/kg fumagillin analog equiv.): 5-20% |
| COC1=CCC[C@]2(CO2)[C@H]1C1(C)O[C@@H]1CC=C(C)C (some centres unmarked) [Compound 27] | < 25 | – | % TGD (B16F10 tumor cells [2]; 50 mg/kg fumagillin analog equiv.): 5-20% |
| CO[C@H]1[C@H](C2(C)O[C@@H]2CC=C(C)C)[C@]2(CC[C@H]1OC(=O)NC(=O)CSCCNC(=O)C1CCCN1C(=O)OCC1c3ccccc3-c3ccccc31)CO2 (some centres unmarked) [Compound 31] | < 25 | 20-50% | – |
| COc1ccc2[nH]cc(CCC(=O)O[C@@H]3CC[C@]4(CO4)[C@@H](C4(C)O[C@@H]4CC=C(C)C)[C@@H]3OC)c2c1 (some centres unmarked) [Compound 32] | < 25 | 20-50% | – |
| CO[C@H]1[C@H](C2(C)O[C@@H]2CC=C(C)C)[C@]2(CC[C@H]1OC(=O)C1CCC(CNC(=O)OCC3c4ccccc4-c4ccccc43)CC1)CO2 (some centres unmarked) [Compound 33] | > 30 | – | % TGD (B16F10 tumor cells [2]; 65 mg/kg fumagillin analog equiv.): 5-20% |
| CO[C@H]1[C@H](C2(C)O[C@@H]2CC=C(C)C)[C@]2(CC[C@H]1OC(=O)NC(=O)CSc1cccc(N)c1)CO2 (some centres unmarked) [Compound 35] | < 25 | 20-50% | – |
| CO[C@H]1[C@H](C2(C)O[C@@H]2CC=C(C)C)[C@]2(CC[C@H]1NC(=O)C13CCC(C(=O)NCCCO)(CC1)CC3)CO2 (some centres unmarked) [Compound 38] | 25 to 100 | 5-20% | – |
| CO[C@@H]1[C@H](NC(=O)NC(=O)CSc2ccc(N)cc2)CC[C@]2(CO2)[C@H]1[C@@]1(C)O[C@@H]1CC=C(C)C [Compound 39] | < 25 | – | IC50 (human MetAP-2 enzyme): < 10 nM |
| CO[C@H]1[C@H](C2(C)O[C@@H]2CC=C(C)C)[C@]2(CC[C@H]1NC(=O)C13CCC(C(=O)O)(CC1)CC3)CO2 (some centres unmarked) [Compound 40] | 25 to 100 | – | % TGD (B16F10 tumor cells [3]): 20-50% |
| CO[C@H]1[C@H](C2(C)O[C@@H]2CC=C(C)C)[C@]2(CC[C@H]1NC(=O)CCl)CO2 (some centres unmarked) [Compound 44] | < 25 | 5-20% | – |
| CO[C@H]1[C@H](C2(C)O[C@@H]2CC=C(C)C)[C@]2(CC[C@H]1OC(=O)NCCc1ccc(NC(=O)[C@H](C)N)cc1)CO2 (some centres unmarked) [Compound 51] | < 25 | – | IC50 (human MetAP-2 enzyme): < 10 nM |
| CO[C@H]1C([C@@]2(C)O[C@@H]2CC=C(C)C)[C@]2(CC[C@H]1OC(=O)N[C@@H](C(N)=O)C(C)C)CO2 (some centres unmarked) [PPI-2458, reference compound] | – | – | IC50 (human MetAP-2 enzyme): < 10 nM |
| CO[C@H]1C([C@@]2(C)O[C@@H]2CC=C(C)C)[C@]2(CC[C@H]1OC(=O)NC(=O)CCl)CO2 (some centres unmarked) [TNP-470, reference compound] | – | – | rearing-event activity levels [4]: increased rearing-event activity levels; IC50 (human MetAP-2 enzyme): < 10 nM |

Source: patent publication US8399512B2, “Biocompatible biodegradable fumagillin analog conjugates” (Mersana Therapeutics, Inc., priority 2007, dated 2013)
